Assay results as given in ChEMBL document CHEMBL1201862, “PubChem BioAssay data set” (2004).
Several values for one entry are separate records, joined by “and”; a condition that tells them apart may be missing. Equal values may be shown once.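 Exposure lasted 48 hours, with cells grown in 96-well plates and compounds tested at five concentrations. Here, GI50 denotes the concentration required for 50% inhibition of growth.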 Activity calls are given as the source filed them. Cut-off read from the data, not from the text of the source: active = GI50 up to about 1.1 µM and inactive = higher.

Key:
Assay in all cases: NCI tumour cell line growth inhibition, 48 h
DU-145 = tested on: DU-145
DMS-114 = tested on: DMS-114
Hs-578T = tested on: Hs-578T
NCI/ADR-RES = tested on: NCI/ADR-RES
PC-3 = tested on: PC-3
MDA-N = tested on: MDA-N
HOP-62 = tested on: HOP-62
SK-OV-3 = tested on: SK-OV-3
MDA-MB-231 = tested on: MDA-MB-231
RXF 631 = tested on: RXF 631
T47D = tested on: T47D
MCF7 = tested on: MCF7
LXFL 529 = tested on: LXFL 529
SR = tested on: SR
HOP-92 = tested on: HOP-92
SW-620 = tested on: SW-620
NCI-H522 = tested on: NCI-H522
786-0 = tested on: 786-0
U-251 = tested on: U-251
SNB-78 = tested on: SNB-78
SF-268 = tested on: SF-268
M19-MEL = tested on: M19-MEL
SK-MEL-2 = tested on: SK-MEL-2
RXF 393 = tested on: RXF 393
A498 = tested on: A498
RPMI-8226 = tested on: RPMI-8226
DLD-1 = tested on: DLD-1
CAKI-1 = tested on: CAKI-1
OVCAR-4 = tested on: OVCAR-4
LOX IMVI = tested on: LOX IMVI
SNB-19 = tested on: SNB-19
Malme-3M = tested on: Malme-3M
DMS-273 = tested on: DMS-273
SF-295 = tested on: SF-295
HCC 2998 = tested on: HCC 2998
UO-31 = tested on: UO-31
HCT-15 = tested on: HCT-15
UACC-257 = tested on: UACC-257
OVCAR-5 = tested on: OVCAR-5
SNB-75 = tested on: SNB-75
OVCAR-8 = tested on: OVCAR-8
NCI-H226 = tested on: NCI-H226
HOP-18 = tested on: HOP-18
K562 = tested on: K562
SK-MEL-5 = tested on: SK-MEL-5
EKVX = tested on: EKVX
HT-29 = tested on: HT-29
KM-20L2 = tested on: KM-20L2
HCT-116 = tested on: HCT-116
IGROV-1 = tested on: IGROV-1
NCI-H460 = tested on: NCI-H460
KM12 = tested on: KM12
SF-539 = tested on: SF-539
UACC-62 = tested on: UACC-62
XF498 = tested on: XF498
COLO 205 = tested on: COLO 205
SK-MEL-28 = tested on: SK-MEL-28
MOLT-4 = tested on: MOLT-4
TK-10 = tested on: TK-10
ACHN = tested on: ACHN
HL-60 = tested on: HL-60
OVCAR-3 = tested on: OVCAR-3
SN12C = tested on: SN12C
NCI-H23 = tested on: NCI-H23
A549 = tested on: A549
CCRF-CEM = tested on: CCRF-CEM
M14 = tested on: M14

## CC1(C)CC[C@H](C2=CC(=O)c3c(O)ccc(O)c3C2=O)O1
DU-145
  GI50: 2.4 µM (inactive) and 2.09 µM (inactive)
DMS-114
  GI50: 359 nM (active) and 200 nM (active)
Hs-578T
  GI50: 2.64 µM (inactive) and 2.74 µM (inactive)
NCI/ADR-RES
  GI50: 2.79 µM (inactive)
PC-3
  GI50: 2.86 µM (inactive) and 1.71 µM (inactive)
MDA-N
  GI50: 577 nM (active) and 904 nM (active)
HOP-62
  GI50: 4.61 µM (inactive) and 2.72 µM (inactive)
SK-OV-3
  GI50: 8.05 µM (inactive) and 4.24 µM (inactive)
MDA-MB-231
  GI50: 2.44 µM (inactive) and 1.48 µM (inactive)
RXF 631
  GI50: 1.15 µM (inactive)
T47D
  GI50: 460 nM (active) and 470 nM (active)
MCF7
  GI50: 173 nM (active) and 216 nM (active)

## O=C(/C=C/c1c(O)ccc2ccccc12)c1cccc(O)c1
LXFL 529
  GI50: > 83.6 µM (inactive)
SR
  GI50: 42.7 µM (inactive)
HOP-92
  GI50: > 62.8 µM (inactive)
DMS-114
  GI50: 41.3 µM (inactive)
SW-620
  GI50: > 100 µM (inactive)
NCI-H522
  GI50: 63.4 µM (inactive)
786-0
  GI50: > 100 µM (inactive)
U-251
  GI50: > 91.6 µM (inactive)
SNB-78
  GI50: > 100 µM (inactive)
SF-268
  GI50: > 100 µM (inactive)
M19-MEL
  GI50: 17.5 µM (inactive)
SK-MEL-2
  GI50: 42.3 µM (inactive)
RXF 393
  GI50: > 77.4 µM (inactive)
A498
  GI50: > 100 µM (inactive)
RPMI-8226
  GI50: 64.3 µM (inactive)
DLD-1
  GI50: > 100 µM (inactive)
CAKI-1
  GI50: > 100 µM (inactive)
OVCAR-4
  GI50: > 70 µM (inactive)
LOX IMVI
  GI50: 41.8 µM (inactive)
SNB-19
  GI50: > 100 µM (inactive)
Malme-3M
  GI50: 59.8 µM (inactive)
DMS-273
  GI50: > 63.5 µM (inactive)
SF-295
  GI50: > 100 µM (inactive)
HCC 2998
  GI50: > 100 µM (inactive)
UO-31
  GI50: > 100 µM (inactive)
HCT-15
  GI50: > 100 µM
UACC-257
  GI50: 76.9 µM (inactive)
OVCAR-5
  GI50: > 100 µM (inactive)
SNB-75
  GI50: 71.6 µM (inactive)
OVCAR-8
  GI50: > 100 µM (inactive)
NCI-H226
  GI50: > 100 µM (inactive)
HOP-18
  GI50: 23 µM (inactive)
K562
  GI50: 44.3 µM (inactive)
SK-MEL-5
  GI50: 50.4 µM (inactive)
EKVX
  GI50: > 100 µM (inactive)
HT-29
  GI50: > 100 µM (inactive)
HOP-62
  GI50: > 100 µM (inactive)
KM-20L2
  GI50: > 100 µM (inactive)
SK-OV-3
  GI50: > 100 µM (inactive)
HCT-116
  GI50: > 100 µM (inactive)
IGROV-1
  GI50: > 100 µM (inactive)
NCI-H460
  GI50: > 100 µM (inactive)
KM12
  GI50: > 100 µM (inactive)
SF-539
  GI50: > 100 µM (inactive)
UACC-62
  GI50: 28.8 µM (inactive)
XF498
  GI50: > 100 µM (inactive)
COLO 205
  GI50: > 100 µM (inactive)
SK-MEL-28
  GI50: > 100 µM (inactive)
MOLT-4
  GI50: 47 µM (inactive)
TK-10
  GI50: > 100 µM (inactive)
ACHN
  GI50: > 100 µM (inactive)
HL-60
  GI50: 20.7 µM (inactive)
OVCAR-3
  GI50: > 76.9 µM (inactive)
SN12C
  GI50: > 100 µM (inactive)
NCI-H23
  GI50: > 79.8 µM (inactive)
A549
  GI50: > 100 µM (inactive)
CCRF-CEM
  GI50: 30.1 µM (inactive)
M14
  GI50: > 100 µM (inactive)
